Results reported in paper PMC5374420, “In Search of Small Molecule Inhibitors Targeting the Flexible CK2 Subunit Interface” (Pharmaceuticals, 2017).
Where a SMILES comes first, the peptide text is derived from it. Bridges are numbered along the chain shown (N, C = ends).

Key:
CK2 holoenzyme = target: T1, CK2 holoenzyme (Homo sapiens, UniProt P68400); assay: CK2 kinase assay with CK2β-independent peptide substrate; format: biochemical; settings: CK2 holoenzyme 100 nM, 15 min at 4 °C; at high TAT-Pc 13 concentrations
T1 construct: made in house
Protocol: Figure 4 Inhibitory activity of a TAT-Pc analogue in vitro. (A) CK2 holoenzyme (100 nM) was incubated in the presence of increasing concentrations of TAT-Pc 13 for 15 min at 4 °C. CK2 activity was then determined with CK2β-dependent or independent peptide substrates; (B) [^35S]-labeled CK2α was incubated with biotinylated MBP-CK2β immobilized on streptavidin coated plates (preformed complex) in the absence (1) or presence (2) of TAT-Pc 13. Alternatively, [^35S]-labeled CK2α was incubated with TAT-Pc 13 (3) or random TAT-Pc 13 (4) and then with immobilized biotinylated MBP-CK2β. After washing, the amount of [^35S]-labeled CK2α remaining in the complex was determined by radioactivity counting. Representative data shown from two independent experiments. Results are presented as mean ± s.d. of triplicates.
CK2 kinase assays were performed in a phosphorylation buffer containing recombinant CK2α (36 ng) or recombinant CK2 holoenzyme (50 ng) and a mixture containing 10 mM MgCl2 and 1 μCi of [γ-32P]ATP and 0.15 M NaCl in the presence of 0.2 mM of the CK2β-independent substrate […] [28] or the CK2β-dependent substrate […] [18]. […] Kinase reactions were terminated by the addition of 60 μL of 4% trichloroacetic acid and sample adsorption on phosphocellulose P81 paper, which were washed in 0.5% phosphoric acid and counted in a scintillation counter.

CK2α = target: T2, CK2α (Homo sapiens, UniProt P68400); assay: Thermal shift assay in cell lysates; format: binding
T2 construct: endogenous in cells; host or cells: MCF-10A (CK2β-silenced by pLKO1 lentiviral shRNA; WT as comparison)
Protocol: Thermal shift assay (TSA) is based on the biophysical principle of ligand-induced thermal stabilization of target proteins. This assay can be used to detect protein–ligand interactions in complex cell extracts. Therefore, we have generated thermal melting curves from cell extracts, in which the extent of CK2 unfolding was measured. The assays were performed on WT or CK2β-depleted MCF-10A cell extracts incubated with 50 µM of TAT or TAT-Pc 13 and exposed to increasing temperatures.
Figure 5 Thermal shift assay in cell lysates. CK2β-depleted MCF-10A cell lysates were treated with 50 µM TAT or TAT-Pc 13 (A), or with PBS (Phosphate-buffered saline) or CK2β (B) for 30 min at room temperature. The respective lysates were divided into 20 µL aliquots and heated individually at different temperatures for 3 min. After centrifugation, the supernatants were assayed for CK2 activity with the CK2β-independent peptide substrate. Representative data shown from two independent experiments in duplicate.
CK2β-depleted MCF-10A cell lysates prepared in 50 mM Tris-HCl pH 7.5, 150 mM NaCl, and 2% glycerol supplemented with Complete Protease Inhibitor Cocktail (Sigma, #P8340) were divided into four aliquots with two being treated with 50 µM TAT or […] and the other two aliquots with CK2β or PBS (control). […]

WT MCF-10A cells = assay: Cell death / viability, LIVE&DEAD assay, WT cells; format: cell-based
Protocol: Figure 8 Cellular effects of TAT-Pc 13. (A) MCF-10A cells were incubated with 25 µM of TAT-Pc 13 for 3 h and imaged with phase microscopy (upper panel) or with increasing concentrations of TAT-Pc 13 for 2 h and cell viability was evaluated using the LIVE&DEAD™ assay. Live cells fluoresce bright green (530 nm), whereas dead cells fluoresce red-orange (645 nm) (lower panel, scale bare: 100 µm); (B) WT (○-○) or CK2β-depleted (●-●) MCF-10A cells were incubated for 4 h with increasing concentrations of TAT-Pc 13 and cell death was evaluated using the LIVE&DEAD™ assay recording fluorescence at 645 nm. Representative data shown from two independent experiments in duplicate; (C) MCF-10A cells were pre-treated in the absence or presence of 20 µM z-VAD for 5 h and then incubated for 4 h with 25 µM random TAT-Pc 13 or TAT-Pc 13 and cell viability was evaluated as in (A) (scale bare: 100 µm); and (D) intracellular events induced by increasing concentrations of TAT-Pc 13. After 12 h of treatment, 786-O cells were lysed and analyzed by Western blot. TEXT PRINTED IN THE PICTURE: (B) TAT-Pc 13: TAT-Pc 13 (μM): 48; TAT-Pc 13 (μM): 60 DOUBTS OF THE COPYIST ABOUT THIS PICTURE: Panel B: 48 and 60 are printed in red at the x axis, where dashed lines drop from the two curves at about 50 on the Cell death (%) axis. No measure name (e.g. IC50) is printed with them.
Cells were seeded in 96-well microtiter plates at a concentration of 1 × 10^5 cells/mL and were allowed to attach for 24 h at 37 °C in 5% CO2. Cells were then exposed to different concentrations of TAT-Pc 13 for the indicated time. Cell viability was evaluated using the fluorescence-based LIVE&DEAD™ assay (Molecular Probes, Thermo Fisher Scientific, Courtaboeuf, France) according to the manufacturer. Images were taken with an Apotome-equipped Zeiss Axioimager microscope (Zeiss, Oberkochen, German) recording the fluorescence at 530 nm (Live cells) and 645 nm (dead cells) respectively using a FluoStar Optima plate reader (BMG LabTech, Ortenberg, Germany).

[1] = both WT and CK2β-depleted MCF-10A cells, 4 h

T2 sequence (P68400 whole entry): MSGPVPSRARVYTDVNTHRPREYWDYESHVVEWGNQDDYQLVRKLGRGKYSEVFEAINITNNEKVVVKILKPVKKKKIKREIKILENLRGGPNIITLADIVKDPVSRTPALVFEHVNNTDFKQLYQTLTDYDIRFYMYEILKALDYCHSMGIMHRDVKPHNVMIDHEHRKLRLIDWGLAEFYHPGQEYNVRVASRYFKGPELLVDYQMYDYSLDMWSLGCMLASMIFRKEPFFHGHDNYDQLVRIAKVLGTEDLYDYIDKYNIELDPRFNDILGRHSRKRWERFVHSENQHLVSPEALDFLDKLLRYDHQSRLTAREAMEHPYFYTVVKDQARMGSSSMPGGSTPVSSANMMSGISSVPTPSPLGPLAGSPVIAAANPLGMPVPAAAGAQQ
T1 sequence (P68400 whole entry): as above

CC[C@H](C)[C@@H]1NC(=O)[C@H](CCCCN)NC(=O)[C@H](Cc2ccccc2)NC(=O)CNC(=O)[C@H](Cc2ccc(O)cc2)NC(=O)[C@H](CC(C)C)NC(=O)[C@H](CCCNC(=N)N)NC(=O)CNC(=O)CNC(=O)[C@@H](NC(=O)[C@H](CCC(N)=O)NC(=O)[C@@H]2CCCN2C(=O)[C@@H]2CCCN2C(=O)[C@H](CCCNC(=N)N)NC(=O)[C@H](CCCNC(=N)N)NC(=O)[C@H](CCCNC(=N)N)NC(=O)[C@H](CCC(N)=O)NC(=O)[C@H](CCCNC(=N)N)NC(=O)[C@H](CCCNC(=N)N)NC(=O)[C@H](CCCCN)NC(=O)[C@H](CCCCN)NC(=O)[C@H](CCCNC(=N)N)NC(=O)CN)CCCCNC(=O)CNC(=O)CNC(=O)[C@H](Cc2c[nH]cn2)NC1=O [TAT-Pc 13] (H-GRKKRRQRRRPPQKGGRLYGFKIHGG; lactam 14-C; N-terminus assumed)
CK2β-independent peptide phosphorylation (CK2 holoenzyme): significantly stimulated
shift in the melting curves (CK2α; CK2β-depleted MCF-10A cell extracts, 50 µM peptide, 30 min at room temperature, 3 min heating, read-out CK2 activity): 4 °C
thermal shift in WT cell extracts (CK2α; extracts from WT MCF-10A cells, not shown): no thermal shift
concentration at which cell death became massive (WT MCF-10A cells; [1]): 50 to 60 µM
concentration at which cell death was already detectable (WT MCF-10A cells; [1]): 25 µM
cells rounded up and shrank (WT MCF-10A cells; three hours after addition, 25 µM (Figure 8A), phase microscopy): more than 50%
